Laboratory results: US9737075B2, “Synergistic benzoxaborole-containing anti-fungicidal composition” (The Penn State Research Foundation, priority 2015, dated 2017)
≈ marks a conversion by molar mass, not a printed value. Like-named read-outs stand apart in the source and are kept apart here.

Columns and labels:
Type in all cases: cell-based
[1] = system: Mycosphaerella zeae-maydis; experiment: Broth microdilution MIC of individual antifungals; details: individual antifungal, 25% PDB, about 25° C., 72 hours, range over N independent triplicate studies; for MIC: Didymella maydis
Sclerotinia homoeocarpa = experiment: Broth microdilution MIC of individual antifungals; details: for MIC: Clarireedia homoeocarpa, read-out: Independent MIC
Botrytis cinerea 10-1728 = experiment: Broth microdilution MIC of individual antifungals; details: for MIC: read-out: Independent MIC
Fusarium graminearum = experiment: microbe, parasite or virus in culture; details: for MIC: Fusarium graminearum, 72 h, read-out: Independent MIC
Fusarium verticillioides = experiment: Broth microdilution MIC of individual antifungals; details: for MIC: read-out: Independent MIC
Rhizoctonia solani = experiment: Broth microdilution MIC of individual antifungals; details: for MIC: read-out: Independent MIC
[2] = system: Colletotrichum orbiculare; experiment: Broth microdilution MIC of individual antifungals; details: for MIC: read-out: Independent MIC
Aspergillus flavus = experiment: Broth microdilution MIC of individual antifungals; details: individual antifungal, 25% PDB, about 25° C., 72 hours, range over N independent triplicate studies; for MIC: read-out: Independent MIC
Aspergillus fumigatus = experiment: Broth microdilution MIC of individual antifungals; details: for MIC: read-out: Independent MIC
Aspergillus niger = experiment: Broth microdilution MIC of individual antifungals; details: for MIC: read-out: Independent MIC
Candida albicans = experiment: Broth microdilution MIC of individual antifungals; details: for MIC: read-out: Independent MIC
Rhizopus sp. = experiment: Broth microdilution MIC of individual antifungals; details: Rhizopus sp., individual antifungal, 25% PDB, about 25° C., 72 hours, range over N independent triplicate studies; for MIC: Rhizopus, 72 h, read-out: Independent MIC
Mucor sp. = experiment: Broth microdilution MIC of individual antifungals; details: individual antifungal, 25% PDB, about 25° C., 72 hours, range over N independent triplicate studies
Penicillium chrysogenum = experiment: Broth microdilution MIC of individual antifungals; details: individual antifungal, 25% PDB, about 25° C., 72 hours, range over N independent triplicate studies; for MIC: read-out: Independent MIC
Alternaria solani = experiment: Broth microdilution MIC of individual antifungals; details: for MIC: read-out: Independent MIC
Magnaporthe grisea = experiment: microbe, parasite or virus in culture; details: for MIC: Pyricularia oryzae, 72 h, read-out: Independent MIC
Phytophthora pini = experiment: Broth microdilution MIC of individual antifungals; details: individual antifungal, 25% PDB, about 25° C., 72 hours, range over N independent triplicate studies
[3] = system: Fusarium solani f. sp. pisi (MP VI); experiment: Broth microdilution MIC of individual antifungals; details: Fusarium solani f. sp. pisi (MP VI), individual antifungal, 25% PDB, about 25° C., 72 hours, range over N independent triplicate studies; for MIC: read-out: Independent MIC
Aureobasidium pullulans = experiment: Broth microdilution MIC of individual antifungals; details: read-out: Independent MIC
Botrytis cinerea B17 = experiment: Broth microdilution MIC of individual antifungals; details: Botrytis cinerea B17; individual antifungal, 25% PDB, about 25° C., 72 hours; range over N independent triplicate studies; read-out: Independent MIC
Stachybotrys chartarum = experiment: Broth microdilution MIC of individual antifungals; details: individual antifungal, 25% PDB, about 25° C., 72 hours, range over N independent triplicate studies, read-out: Independent MIC
[4] = Sclerotinia homoeocarpa, individual antifungal, 25% PDB, about 25° C., 72 hours, range over N independent triplicate studies
[5] = 101728, Botrytis cinerea 10-1728, individual antifungal, 25% PDB, about 25° C., 72 hours, range over N independent triplicate studies
[6] = individual antifungal, 25% PDB, about 25° C., 72 hours, range over N independent triplicate studies
[7] = Botrytis cinerea 10-1728, individual antifungal, 25% PDB, about 25° C., 72 hours, range over N independent triplicate studies

Row | Compound | MIC [1] [µg/mL] | MIC (Sclerotinia homoeocarpa; [4]) [µg/mL] | MIC (Botrytis cinerea 10-1728; [5]) [µg/mL] | MIC (Fusarium graminearum) [µg/mL] | MIC (Fusarium verticillioides; [6]) [µg/mL] | MIC (Rhizoctonia solani; [6]) [µg/mL] | MIC [2, 6] [µg/mL] | MIC (Aspergillus flavus) [µg/mL] | MIC (Aspergillus fumigatus; [6]) [µg/mL] | MIC (Aspergillus niger; [6]) [µg/mL] | MIC (Candida albicans; [6]) [µg/mL] | MIC (Rhizopus sp.) [µg/mL] | MIC (Mucor sp.) [µg/mL] | MIC (Penicillium chrysogenum) [µg/mL] | MIC (Magnaporthe grisea) [µg/mL] | MIC (Phytophthora pini) [µg/mL] | Independent MIC (Rhizopus sp.) | MIC (Alternaria solani; [6]) [µg/mL] | further results
1 | Cc1ccc(-c2c(Cl)nc(C#N)n2S(=O)(=O)N(C)C)cc1 [Cyazofamid, cyazofamid] | 100 | 100 | 200 to 400 | 100 (≈ 308 µM) | 200 | 50 to 100 | 50 to 100 |  |  |  |  |  |  |  |  |  |  |  | 
2 | CC(C1CC1)C(O)(Cn1cncn1)c1ccc(Cl)cc1 (stereo not shown) [Cyproconazole, cyproconazole] | 3.12 to 6 | 1.56 to 3.12 | 0.78 to 2 |  | 3 to 3.12 | 6.25 to 12.5 | 6.25 to 12.5 | 50 to 100 | 12.5 to 25 | 25 | 100 to 400 | 12.5 to 50 | 100 to 200 | 100 |  |  |  |  | 
3 | CCOP(=O)(Sc1ccccc1)Sc1ccccc1 [Edifenphos, edifenphos] | 200 to 400 |  |  |  |  |  |  |  |  |  |  |  | 50 to 100 |  | 6.25 (≈ 20.1 µM) | 100 |  |  | MIC (Alternaria solani; 72 h): 200 µg/mL; MIC (Aspergillus fumigatus; 72 h): 200 µg/mL; MIC (Sclerotinia homoeocarpa; 72 h): 3.12 to 6.25 µg/mL; MIC (Botrytis cinerea 10-1728; Botrytis cinerea, 101728, 72 h): 100 to 200 µg/mL; MIC (Fusarium verticillioides; 72 h): 200 to 400 µg/mL; MIC (Rhizoctonia solani; 72 h): 200 to 400 µg/mL
4 | [Cl][Sn]([c]1ccccc1)([c]1ccccc1)[c]1ccccc1 [Fentin Chloride, fentin chloride] |  |  |  |  |  |  |  |  |  |  |  |  |  |  |  |  | (0.39-0.78) μg/mL |  | Independent MIC [1]: 50 µg/mL; Independent MIC (Alternaria solani; [6]): (10-12.5) μg/mL; Independent MIC (Aspergillus flavus): (0.78-1) μg/mL; Independent MIC (Aspergillus fumigatus; [6]): 0.78 µg/mL; Independent MIC (Aspergillus niger; [6]): (0.78-1) μg/mL; Independent MIC (Sclerotinia homoeocarpa; [4]): 12.5 µg/mL; Independent MIC (Botrytis cinerea 10-1728; [7]): (50-100) μg/mL; Independent MIC (Candida albicans; [6]): (0.78-1.56) μg/mL; Independent MIC (Fusarium graminearum): (50-200) μg/mL; Independent MIC (Fusarium verticillioides; [6]): (6.25-12.5) μg/mL; Independent MIC [3]: (0.78-3.12) μg/mL; Independent MIC (Mucor sp.): (1-1.56) μg/mL; Independent MIC (Magnaporthe grisea): 1.25 µg/mL; Independent MIC (Phytophthora pini): 0.098 µg/mL; Independent MIC (Rhizoctonia solani; [6]): (12.5-25)^ μg/mL; Independent MIC (Penicillium chrysogenum): (0.1-0.2) μg/mL; Independent MIC [2, 6]: 1.56 µg/mL
5 | O=[N+]([O-])c1cc(C(F)(F)F)c(Cl)c([N+](=O)[O-])c1Nc1ncc(C(F)(F)F)cc1Cl [Fluazinam, fluazinam] | 1 to 1.56 | 3.12 to 6.25 | 1 to 1.56 |  | 12.5 | 6.25 to 25 |  |  |  | 3.12 |  | 0.2 to 0.78 | 0.78 to 1 |  |  | 3.12 |  | 0.5 to 0.78 | 
6 | CC(C)OP(=O)(OC(C)C)SCc1ccccc1 [Iprobenfos, iprobenfos] |  | 12.5 to 25 | 100 to 200 | 200 to 400 (≈ 694 to 1390 µM) |  | 200 to 400 |  |  |  |  |  |  | 100 to 200 |  | 25 (≈ 86.7 µM) |  |  |  | MIC (Aspergillus niger; 72 h): 200 to 300 µg/mL; MIC (Candida albicans; 72 h): 200 to 400 µg/mL; MIC ([2]; 72 h): 12.5 to 25 µg/mL
7 | CCCC1COC(Cn2cncn2)(c2ccc(Cl)cc2Cl)O1 (stereo not shown) [Propiconazole, propiconazole] | 3 to 6.25 | 0.5 to 1 | 1.25 to 3.12 | 12.5 to 25 (≈ 36.5 to 73.1 µM) | 0.5 to 2 |  | 3.12 | 6.25 to 12.5 | 2.5 to 6.25 | 12.5 | 100 to 200 | 12.5 to 24 | 50 | 6.25 to 12.5 | 1.56 (≈ 4.56 µM) | 6.25 | 12.5 µg/mL | 100 to 160 | MIC (Aureobasidium pullulans; 72 h): 1.56 to 6 µg/mL; MIC (Botrytis cinerea B17): 1 to 2 µg/mL; MIC [3]: 200 µg/mL; MIC (Stachybotrys chartarum): 6.25 to 12.5 µg/mL
8 | COC(=O)N(OC)c1ccccc1COc1ccn(-c2ccc(Cl)cc2)n1 [Pyraclostrobin, pyraclostrobin] | 2 to 4 | 0.5 | 200 | 200 (≈ 516 µM) |  |  | 3.12 |  | 20 to 25 | 25 to 50 |  | 50 | 100 | 0.1 to 0.4 | 0.02 to 0.025 (≈ 0.0516 to 0.0645 µM) | 1.56 |  | 50 to 100 | MIC (Aureobasidium pullulans; [6]): 0.188 to 0.78 µg/mL; MIC (Botrytis cinerea B17): 3.75 to 8 µg/mL; MIC [3]: 100 to 200 µg/mL; MIC (Stachybotrys chartarum): 1.56 to 4 µg/mL
9 | CC(C)(C)C(O)(CCc1ccc(Cl)cc1)Cn1cncn1 (stereo not shown) [Tebuconazole, tebuconazole] | 50 to 100 | 0.39 to 0.78 | 1 to 1.56 |  | 1.56 to 3 | 3.12 to 6.25 | 1.56 to 3.13 | 3 to 3.12 | 0.78 to 1.56 | 3.12 | 100 to 200 | 0.78 | 12.5 to 15 |  |  |  |  | 25 to 50 | 
10 | maneb |  |  |  |  |  |  |  |  |  |  |  |  |  |  |  |  | (50-100) μg/mL |  | Independent MIC [1]: 25 µg/mL; Independent MIC (Alternaria solani; [6]): (25-50) μg/mL; Independent MIC (Aspergillus flavus): (12.5-25)^ μg/mL; Independent MIC (Aspergillus fumigatus; [6]): 3.125 µg/mL; Independent MIC (Aspergillus niger; [6]): (50-100) μg/mL; Independent MIC (Sclerotinia homoeocarpa; [4]): 1.56 µg/mL; Independent MIC (Botrytis cinerea 10-1728; [7]): (12.5-40)^ μg/mL; Independent MIC (Candida albicans; [6]): 1.56 µg/mL; Independent MIC (Fusarium graminearum): 12.5 µg/mL; Independent MIC (Fusarium verticillioides; [6]): 6.25 µg/mL; Independent MIC [3]: 25 µg/mL; Independent MIC (Mucor sp.): (25-50) μg/mL; Independent MIC (Magnaporthe grisea): 1.56 µg/mL; Independent MIC (Phytophthora pini): 3.125 µg/mL; Independent MIC (Rhizoctonia solani; [6]): (50-100) μg/mL; Independent MIC (Penicillium chrysogenum): 25 µg/mL; Independent MIC [2, 6]: (3.13-6.25) μg/mL
